These results are taken from patent US20160039880A1 (priority 2012, published 2016).

Converted amounts (≈) assume the structure as drawn. Read-outs that look alike come from different tables or passages of the source. Starred links: 1 amine or outer side, 2 acyl side, 3 side chain; linkers in the order of their positions; H or OH if unused. Non-standard residues stand in square brackets, D forms with d. Residues, ends and D or L forms follow the SMILES beside them. X2 = CC(CCN1CCOCC1)C(O)C(C(=O)[*:2])N(C)[*:1]; X1 = CCN(C(C(=O)[*:2])C(C)C)[*:1]; NMeL = CN[CH](CC(C)C)C(=O)O; NMeV = CN[CH](C(=O)O)C(C)C; NMeA = CN[CH](C)C(=O)O; Abu = CC[CH](N)C(=O)O

Data set [1] is described as follows: Water Solubility Assay (measured in pH 7.8 buffer).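 Further: precipitation onset detected as rise in absorbance at 650 nm across increasing concentrations, after shaking for 18 h, blank wells receiving DMSO only.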 Format: physicochemical.
The target in data set [2] is T1, Calcineurin (Homo sapiens, UniProt P62937+P63098+Q08209).
T1 sequence (P63098 whole entry, other chains not shown): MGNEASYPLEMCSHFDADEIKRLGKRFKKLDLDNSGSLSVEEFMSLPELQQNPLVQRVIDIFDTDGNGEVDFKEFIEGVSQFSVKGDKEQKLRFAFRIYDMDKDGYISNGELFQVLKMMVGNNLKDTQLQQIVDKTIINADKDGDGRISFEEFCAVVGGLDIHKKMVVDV
T1 sequence (P62937 whole entry, other chains not shown): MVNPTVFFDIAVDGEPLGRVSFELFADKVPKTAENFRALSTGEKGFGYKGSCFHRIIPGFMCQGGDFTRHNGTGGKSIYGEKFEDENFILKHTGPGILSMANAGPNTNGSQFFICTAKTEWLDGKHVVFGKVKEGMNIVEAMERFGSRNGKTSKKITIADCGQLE
Data set [3] concerns the target T2, Human recombinant cyclophilin A (Cyp A) (Homo sapiens, UniProt P62937). The data set can be described thus: Protease-free PPIase assay.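 Further: cis to trans isomerization of SUC-AAPF-pNA by 2 nM enzyme, read as absorbance at 330 nm over 300 s at 10 °C, catalytic rate corrected for uncatalyzed background.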
For data set [4], the target named is T1, Calcineurin. The data set can be described thus: Calcineurin Phosphatase (CaN) Assay with Cyp A (+CypA). Particulars: for IC50: read-out: Calcineurin Phosphatase (CaN) Assay (+CypA) IC50, in the presence of Cyp A.
In data set [5] the target is T2, Human recombinant cyclophilin A (Cyp A).
Setting [6] is: 35 mM HEPES pH 7.8, 1% DMSO, 25 °C, 18 h, read-out: Water Solubility Assay, concentration at which the compound remains in solution.
Where [7] appears, read: read-out: Protease-free PPIase Assay Ki, cyclophilin A, 10 °C.

T2 sequence (P62937 whole entry): as the sequence (P62937 whole entry, other chains not shown) above

In general, Ki refers to the equilibrium dissociation constant of an inhibitor or competing ligand from its target. For `CC[C@H]1NC(=O)[C@@H]([C@H](O)[C@H](C)CCN2CCC(F)(F)C2)N(C)C(=O)[C@@H](C(C)C)N(C)C(=O)[C@@H](CC(C)C)N(C)C(=O)[C@@H](CC(C)C)N(C)C(=O)[C@H](C)NC(=O)[C@@H](C)NC(=O)[C@@H](CC(C)C)N(C)C(=O)[C@@H](C(C)C)NC(=O)[C@H](CC(C)C)N(C)C(=O)[C@@H](CO)N(C)C1=O` [Compound EP], the solubility at 18 h in data set [1] (25 °C, pH 7.8, aqueous buffer, kinetic from dmso stock) fell in the range of 50 to 75 µM (≈ 65.6 to 98.4 µg/mL). The immunosuppressive potential entry on Calcineurin [2] is recorded as “more immunosuppressive potential than others”. In data set [3], the Ki came to 3.4 nM.

The term IC50 denotes the midpoint of a concentration-inhibition curve. Consider `CC[C@H]1NC(=O)[C@@H]([C@H](O)[C@H](C)CCN2CCCOCC2)N(C)C(=O)[C@@H](C(C)C)N(C)C(=O)[C@@H](CC(C)C)N(C)C(=O)[C@@H](CC(C)C)N(C)C(=O)[C@H](C)NC(=O)[C@@H](C)NC(=O)[C@@H](CC(C)C)N(C)C(=O)[C@@H](C(C)C)NC(=O)[C@H](CC(C)C)N(C)C(=O)[C@@H](C)N(C)C1=O` [Compound X], for which, in data set [1] (setting [6]), the solubility at 18 h is above 100 µM. Further, the Ki in data set [3] (setting [7]) was 4.9 nM. In addition, the IC50 at Calcineurin [4] (1:1 complex with inhibitor) was above 10000 nM.

Take `CC[C@H]1NC(=O)[C@@H]([C@H](O)[C@H](C)CCN2CC(F)(F)C2)N(C)C(=O)[C@@H](C(C)C)N(C)C(=O)[C@@H](CC(C)C)N(C)C(=O)[C@@H](CC(C)C)N(C)C(=O)[C@H](C)NC(=O)[C@@H](C)NC(=O)[C@@H](CC(C)C)N(C)C(=O)[C@@H](C(C)C)NC(=O)[C@H](CC(C)C)N(C)C(=O)[C@@H](C)N(C)C1=O` [Compound EM, [(3R,4R,5S)-(3,3-Difluoro-azetidin-1-yl)-4-hydroxy-3-methyl-5-(methylamino)-1-hexanoic acid]^1[(R)-methyl-Sar]^3 cyclosporin A]: the “Water Solubility Assay” value in data set [1] (pH 7.8) was 75 to 100 µM. In addition, the Ki in data set [5] worked out at 9.5 nM. Further, the immunosuppressive potential result at Calcineurin [2] is given as “more immunosuppressive potential than others”.

Consider `CC[C@H]1NC(=O)[C@@H]([C@H](O)[C@H](C)CCN2CC(F)(F)OC(F)(F)C2)N(C)C(=O)[C@@H](C(C)C)N(C)C(=O)[C@@H](CC(C)C)N(C)C(=O)[C@@H](CC(C)C)N(C)C(=O)[C@H](C)NC(=O)[C@@H](C)NC(=O)[C@@H](CC(C)C)N(C)C(=O)[C@@H](C(C)C)NC(=O)[C@H](CC(C)C)N(C)C(=O)[C@@H](CO)N(C)C1=O` [Compound EO], for which the solubility at 18 h in data set [1] (35 mM HEPES buffer pH 7.8, 25 °C, aqueous buffer, kinetic from dmso stock, pH 7.8 buffer, read-out: Water Solubility Assay) lay within 10 to 25 µM (≈ 13.6 to 34.1 µg/mL). In addition, the Ki in data set [3] amounted to 13 nM. For the same compound, on Calcineurin [4] (in words, as measured by the MLR and CaN assays), the immunosuppressive potential result was “more immunosuppressive potential than others”.

Turning to `CC[C@H]1NC(=O)[C@@H]([C@H](O)[C@H](C)CCN2CCOCC2)N(C)C(=O)[C@@H](C(C)C)N(C)C(=O)[C@@H](CC(C)C)N(C)C(=O)[C@@H](CC(C)C)N(C)C(=O)[C@H](C)NC(=O)[C@@H](C)NC(=O)[C@@H](CC(C)C)N(C)C(=O)[C@@H](C(C)C)NC(=O)[C@H](CC(C)C)N(C)C(=O)[C@@H](CSCCN(CC)CC)N(C)C1=O` [Compound AC, [(3R,4R,5S)-4-Hydroxy-3-methyl-5-(methylamino)-1-N-morpholino-hexanoic acid]^1[(S)-2-diethylaminoethylthiomethyl-Sar]^3 cyclosporin A], the solubility at 18 h in data set [1] (setting [6]) is on record as above 100 µM. Further, the inhibition constant (Ki) in data set [3] (setting [7]) amounted to 7.5 nM. Further, on Calcineurin [4] (1:1 complex with inhibitor), the IC50 is above 10000 nM.

Consider `CC[C@H]1NC(=O)[C@@H]([C@H](O)[C@H](C)CCN2C[C@H]3CN(C)C[C@H]3C2)N(C)C(=O)[C@@H](C(C)C)N(C)C(=O)[C@@H](CC(C)C)N(C)C(=O)[C@@H](CC(C)C)N(C)C(=O)[C@H](C)NC(=O)[C@@H](C)NC(=O)[C@@H](CC(C)C)N(C)C(=O)[C@@H](C(C)C)NC(=O)[C@H](CC(C)C)N(C)C(=O)[C@@H](C)N(C)C1=O` (relative stereo) [Compound O, [(3R,4R,5S)-4-Hydroxy-3-methyl-5-(methylamino)-1-(N-(3aR*,6aS*)-2-methyloctahydropyrrolo[3,4-c]pyrrolo)-hexanoic acid]^1[(R)-methyl-Sar]^3 cyclosporin A], for which the solubility at 18 h in data set [1] (setting [6]) is above 100 µM. Besides, the Ki in data set [3] (setting [7]) is 8.2 nM. Besides, at Calcineurin [4] (1:1 complex with inhibitor), the IC50 was above 10000 nM.

`CC[C@H]1NC(=O)[C@@H]([C@H](O)[C@H](C)CCN2CCOCC2)N(C)C(=O)[C@@H](C(C)C)N(C)C(=O)[C@@H](CC(C)C)N(C)C(=O)[C@@H](CC(C)C)N(C)C(=O)[C@H](C)NC(=O)[C@@H](C)NC(=O)[C@@H](CC(C)C)N(C)C(=O)[C@@H](C(C)C)NC(=O)[C@H](CC(C)C)N(C)C(=O)[C@@H](COCCN(CC)CC)N(C)C1=O` [Compound S, [(3R,4R,5S)-4-Hydroxy-3-methyl-5-(methylamino)-1-N-morpholino-hexanoic acid]^1[(R)-2-diethylaminoethyloxymethyl-Sar]^3 cyclosporin A]: the solubility at 18 h in data set [1] (setting [6]) is recorded as above 100 µM. In data set [3] (setting [7]), the Ki is 10 nM. Also, the IC50 on Calcineurin [4] (1:1 complex with inhibitor) is above 10000 nM.

As for `CC[C@H]1NC(=O)[C@@H]([C@H](O)[C@H](C)CCCC(=O)N2CCOCC2)N(C)C(=O)[C@@H](C(C)C)N(C)C(=O)[C@@H](CC(C)C)N(C)C(=O)[C@@H](CC(C)C)N(C)C(=O)[C@H](C)NC(=O)[C@@H](C)NC(=O)[C@@H](CC(C)C)N(C)C(=O)[C@@H](C(C)C)NC(=O)[C@H](CC(C)C)N(C)C(=O)[C@@H](C)N(C)C1=O` [Compound H, [(5R,6R,7S)-6-hydroxy-5-methyl-7-(methylamino)-1-N-morpholino-1-oxo-octanoic acid]^1[(R)-methyl-Sar]^3 cyclosporin A], the solubility at 18 h in data set [1] (setting [6]) is on record as above 100 µM. Moreover, in data set [3] (setting [7]), the Ki is 3.9 nM. At Calcineurin [4] (1:1 complex with inhibitor), the IC50 is above 10000 nM.

For `CC[C@H]1NC(=O)[C@@H]([C@H](O)[C@H](C)CCCCCN2CCOCC2)N(C)C(=O)[C@@H](C(C)C)N(C)C(=O)[C@@H](CC(C)C)N(C)C(=O)[C@@H](CC(C)C)N(C)C(=O)[C@H](C)NC(=O)[C@@H](C)NC(=O)[C@@H](CC(C)C)N(C)C(=O)[C@@H](C(C)C)NC(=O)[C@H](CC(C)C)N(C)C(=O)[C@@H](C)N(C)C1=O` [Compound G, [(6R,7R,8S)-7-hydroxy-6-methyl-8-(methylamino)-1-N-morpholino-nonanoic acid]^1[(R)-methyl-Sar]^3 cyclosporin A], the solubility at 18 h in data set [1] (setting [6]) is listed as above 100 µM. In addition, the Ki in data set [3] (setting [7]) was found to be 6.2 nM. Also, the IC50 at Calcineurin [4] (1:1 complex with inhibitor) is above 10000 nM.

On to `CCC1NC(=O)C(C(O)C(C)CCN2CCOCC2)N(C)C(=O)C(C(C)C)N(C)C(=O)C(CC(C)C)N(C)C(=O)C(CC(C)C)N(C)C(=O)C(C)NC(=O)C(C)NC(=O)C(CC(C)C)N(C)C(=O)C(C(C)C)NC(=O)C(C(C)C)N(CC)C(=O)C(C)N(C)C1=O` [Compound EJ, [(3R,4R,5S)-4-Hydroxy-3-methyl-1-(morpholin-4-yl)-hexanoic acid]^1[(R)-methyl-Sar]^3[Ethyl-Val]^4 cyclosporin A] (cyclo([X1]V[NMeL]AA[NMeL][NMeL][NMeV][X2][Abu][NMeA]); configuration not given here), for which the solubility at 18 h in data set [1] (pH 7.8 buffer, read-out: Water Solubility Assay) is above 100 µM. In addition, in data set [3] (read-out: Protease-free PPIase Assay Ki, Cyclophilin A (Cyp A) inhibitory activity), the Ki was determined as 9 nM. At Calcineurin [4], the IC50 was above 10000 nM.

Turning to `CCC1NC(=O)C(C(O)C(C)CCN2CCOCC2)N(C)C(=O)C(C(C)C)N(C)C(=O)C(CC(C)C)N(C)C(=O)C(CC(C)C)N(C)C(=O)C(C)NC(=O)C(C)NC(=O)C(CC(C)C)N(C)C(=O)C(C(C)C)NC(=O)C(CC(C)C)N(C)C(=O)C(CC)N(C)C1=O` [Compound AB, [(3R,4R,5S)-4-hydroxy-3-methyl-5-(methylamino)-1-N-morpholino-hexanoic acid]^1[(R)-ethyl-Sar]^3 cyclosporin A], in data set [1] (setting [6]), the solubility at 18 h was above 100 µM. In addition, the Ki in data set [3] (setting [7]) is 5.6 nM. On Calcineurin [4] (1:1 complex with inhibitor), the IC50 was above 10000 nM.
